In patent US6737383B1, “Herbicidal oxadiazolidines” (priority 1999, dated 2004):

Experiments:
surinam grass = experiment: Test B pre/postemergence surinam grass; format: in vivo, Brachiaria decumbens
Procedure, shortened: (§1)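 Test chemicals in a non-phytotoxic solvent mixture with surfactant were sprayed preemergence onto planted seeds and postemergence onto plants 2 to 18 cm tall (1- to 4-leaf stage). After twelve to sixteen days in a greenhouse, injury was visually rated against untreated controls from 0 (no effect) to 10 (complete control).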

pigweed = experiment: Test B pre/postemergence pigweed; format: in vivo, Amaranthus retroflexus
Procedure, shortened: as §1

giant foxtail = experiment: Test B pre/postemergence giant foxtail; format: in vivo, Setaria faberii
Procedure, shortened: as §1

wild oat = experiment: Test B pre/postemergence wild oat; format: in vivo, Avena fatua
Procedure, shortened: as §1

purple nutsedge = experiment: Test B pre/postemergence purple nutsedge; format: in vivo, Cyperus rotundus
Procedure, shortened: as §1

bedstraw = experiment: Test B pre/postemergence bedstraw; format: in vivo, Galium aparine
Procedure, shortened: as §1

duck salad = experiment: Test B flood test duck salad; format: in vivo, Heteranthera limosa
Procedure, shortened: (§2)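 Plants were grown to the 2-leaf stage before treatment with test chemical, then held in a greenhouse for twelve to sixteen days. Injury was visually rated against untreated controls on a 0–10 scale, where 0 is no effect and 10 is complete control.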

morningglory = experiment: Test B pre/postemergence morningglory; format: in vivo, Ipomoea hederacea
Procedure, shortened: as §1

rice = experiment: Test B flood test rice; format: in vivo, Oryza sativa
Procedure, shortened: as §2

smallflower flatsedge = experiment: Test B flood test smallflower flatsedge; format: in vivo, Cyperus difformis
Procedure, shortened: as §2

soybean = experiment: Test B pre/postemergence soybean; format: in vivo, Glycine max
Procedure, shortened: as §1

bamyardgrass = experiment: Test B flood test barnyardgrass; format: in vivo, Echinochloa crus-galli
Procedure, shortened: as §2

sugar beet = experiment: Test B pre/postemergence sugar beet; format: in vivo, Beta vulgaris
Procedure, shortened: as §1

wheat = experiment: Test B pre/postemergence wheat; format: in vivo, Triticum aestivum
Procedure, shortened: as §1

cocklebur = experiment: Test B pre/postemergence cocklebur; format: in vivo, Xanthium strumarium
Procedure, shortened: as §1

velvetleaf = experiment: Test B pre/postemergence velvetleaf; format: in vivo, Abutilon theophrasti
Procedure, shortened: as §1

crabgrass = experiment: Test B pre/postemergence crabgrass; format: in vivo, Digitaria sanguinalis
Procedure, shortened: as §1

corn = experiment: Test B pre/postemergence corn; format: in vivo, Zea mays
Procedure, shortened: as §1

rape = experiment: Test B pre/postemergence rape; format: in vivo, Brassica napus
Procedure, shortened: as §1

blackgrass = experiment: Test B pre/postemergence blackgrass; format: in vivo, Alopecurus myosuroides
Procedure, shortened: as §1

[1] = Postemergence, Rate 62 g/ha, scale 0 to 10, 0 is no effect, 10 is complete control
[2] = Postemergence, Rate 125 g/ha, scale of 0 to 10 where 0 is no effect and 10 is complete control
[3] = Postemergence, Rate 250 g/ha, scale of 0 to 10, 0 is no effect, 10 is complete control
[4] = Postemergence, Rate 500 g/ha, scale of 0 to 10 where 0 is no effect and 10 is complete control
[5] = Preemergence, Rate 62 g/ha, scale 0 to 10 (0 no effect, 10 complete control)
[6] = Preemergence, Rate 125 g/ha, scale of 0 to 10 where 0 is no effect and 10 is complete control
[7] = Preemergence, Rate 500 g/ha, scale of 0 to 10 where 0 is no effect and 10 is complete control
[8] = Rate 62 g/ha, flood test species, Pre-emergence, visual evaluation after twelve to sixteen days
[9] = Rate 125 g/ha, under heading Pre-emergence, flood test species, visual evaluation after twelve to sixteen days
[10] = Rate 250 g/ha, Pre-emergence (flood test species), scale 0 to 10, 0 is no effect, 10 is complete control
[11] = Rate 500 g/ha, Pre-emergence section of Table B, 0 to 10 scale (0 no effect, 10 complete control)

With CC(C)N(C(=O)n1oc(=O)n(CC2=NOCCC2)c1=O)c1ccc(F)cc1 [Compound 601] the “Plant response rating, B. signalgrass” value (surinam grass; [1]) was 0, the “Plant response rating, B. signalgrass” value (surinam grass; [2]) was 0 and the “B. signalgrass plant response rating” value (surinam grass; [3]) was 4. The “Plant response rating, B. signalgrass” value (surinam grass; [4]) was 7, the “B. signalgrass plant response rating” value (surinam grass; [5]) was 3 and the “B. signalgrass plant response rating” value (surinam grass; [6]) was 7. For the same compound, the “B. signalgrass plant response rating (0 to 10 scale, 0 is no effect, 10 is complete control)” value (surinam grass; Preemergence, Rate 250 g/ha) was 8, the “B. signalgrass plant response rating” value (surinam grass; [7]) was 8 and the “Plant response rating, Redroot pigweed” value (pigweed; [1]) was 0. The “Plant response rating, Redroot pigweed” value (pigweed; [2]) was 2, the “Redroot pigweed plant response rating” value (pigweed; [3]) was 2 and the “Plant response rating, Redroot pigweed” value (pigweed; [4]) was 4. For the same compound, the “Redroot pigweed plant response rating” value (pigweed; [5]) was 4, the “Redroot pigweed plant response rating” value (pigweed; [6]) was 10 and the “Plant response rating, Redroot pigweed” value (pigweed; [7]) was 10. The “Plant response rating, Giant foxtail” value (giant foxtail; [1]) was 7, the “Plant response rating, Giant foxtail” value (giant foxtail; [2]) was 7 and the “Giant foxtail plant response rating” value (giant foxtail; [3]) was 7. The “Plant response rating, Giant foxtail” value (giant foxtail; [4]) was 9, the “Giant foxtail plant response rating” value (giant foxtail; [5]) was 10 and the “Giant foxtail plant response rating” value (giant foxtail; [6]) was 10. The “Plant response rating, Giant foxtail” value (giant foxtail; [7]) was 10, the “Plant response rating, Wild oats” value (wild oat; [1]) was 0 and the “Plant response rating, Wild oats” value (wild oat; [2]) was 0. The “Wild oats plant response rating” value (wild oat; [3]) was 0, the “Plant response rating, Wild oats” value (wild oat; [4]) was 0 and the “Wild oats plant response rating” value (wild oat; [5]) was 3. For the same compound, the “Wild oats plant response rating” value (wild oat; [6]) was 8, the “Plant response rating, Wild oats” value (wild oat; [7]) was 8 and the “Plant response rating, Nutsedge” value (purple nutsedge; [1]) was 0. For the same compound, the “Plant response rating, Nutsedge” value (purple nutsedge; [2]) was 0, the “Nutsedge plant response rating” value (purple nutsedge; [3]) was 0 and the “Plant response rating, Nutsedge” value (purple nutsedge; [4]) was 0. For the same compound, the “Nutsedge plant response rating” value (purple nutsedge; [5]) was 0, the “Nutsedge plant response rating” value (purple nutsedge; [6]) was 0 and the “Bedstraw plant response rating” value (bedstraw; [3]) was 3. For the same compound, the “Plant response rating, Bedstraw” value (bedstraw; [4]) was 8, the “Bedstraw plant response rating” value (bedstraw; [5]) was 0 and the “Bedstraw plant response rating” value (bedstraw; [6]) was 0. The “Bedstraw plant response rating (0 to 10 scale)” value (bedstraw; Preemergence, Rate 250 g/ha) was 0, the “Plant response rating, Ducksalad (0 to 10 scale, 0 is no effect, 10 is complete control)” value (duck salad; [8]) was 0 and the “Ducksalad plant response rating (0 to 10 scale, 0 is no effect, 10 is complete control)” value (duck salad; [9]) was 0. The “Ducksalad plant response rating” value (duck salad; [10]) was 0, the “Ducksalad plant response rating” value (duck salad; [11]) was 0 and the “Plant response rating, Morningglory” value (morningglory; [1]) was 1. The “Plant response rating, Morningglory” value (morningglory; [2]) was 1, the “Morningglory plant response rating” value (morningglory; [3]) was 1 and the “Plant response rating, Morningglory” value (morningglory; [4]) was 1. The “Morningglory plant response rating” value (morningglory; [5]) was 0, the “Morningglory plant response rating” value (morningglory; [6]) was 0 and the “Plant response rating, Morningglory” value (morningglory; [7]) was 0. For the same compound, the “Plant response rating, Rice (0 to 10 scale, 0 is no effect, 10 is complete control)” value (rice; [8]) was 0, the “Rice plant response rating (0 to 10 scale, 0 is no effect, 10 is complete control)” value (rice; [9]) was 0 and the “Rice plant response rating” value (rice; [10]) was 0. The “Rice plant response rating” value (rice; [11]) was 0, the “Plant response rating, S. Flatsedge (0 to 10 scale, 0 is no effect, 10 is complete control)” value (smallflower flatsedge; [8]) was 0 and the “S. Flatsedge plant response rating (0 to 10 scale, 0 is no effect, 10 is complete control)” value (smallflower flatsedge; [9]) was 0. The “S. Flatsedge plant response rating” value (smallflower flatsedge; [10]) was 0, the “S. Flatsedge plant response rating” value (smallflower flatsedge; [11]) was 0 and the “Plant response rating, Soybean” value (soybean; [1]) was 4. For the same compound, the “Plant response rating, Soybean” value (soybean; [2]) was 4, the “Soybean plant response rating” value (soybean; [3]) was 5 and the “Plant response rating, Soybean” value (soybean; [4]) was 6. The “Soybean plant response rating” value (soybean; [5]) was 0, the “Soybean plant response rating” value (soybean; [6]) was 0 and the “Plant response rating, Soybean” value (soybean; [7]) was 1. The “Plant response rating, Barnyardgrass (0 to 10 scale, 0 is no effect, 10 is complete control)” value (bamyardgrass; [8]) was 0, the “Barnyardgrass plant response rating (0 to 10 scale, 0 is no effect, 10 is complete control)” value (bamyardgrass; [9]) was 0 and the “Barnyardgrass plant response rating” value (bamyardgrass; [10]) was 0. The “Barnyardgrass plant response rating” value (bamyardgrass; [11]) was 0, the “Plant response rating, Sugarbeets” value (sugar beet; [1]) was 0 and the “Plant response rating, Sugarbeets” value (sugar beet; [2]) was 0. For the same compound, the “Sugarbeets plant response rating” value (sugar beet; [3]) was 0, the “Plant response rating, Sugarbeets” value (sugar beet; [4]) was 0 and the “Sugarbeets plant response rating” value (sugar beet; [5]) was 0. For the same compound, the “Sugarbeets plant response rating” value (sugar beet; [6]) was 4, the “Plant response rating, Sugarbeets” value (sugar beet; [7]) was 5 and the “Plant response rating, Wheat” value (wheat; [1]) was 0. For the same compound, the “Plant response rating, Wheat” value (wheat; [2]) was 0, the “Wheat plant response rating” value (wheat; [3]) was 0 and the “Plant response rating, Wheat” value (wheat; [4]) was 3. The “Wheat plant response rating” value (wheat; [5]) was 0, the “Wheat plant response rating” value (wheat; [6]) was 1 and the “Plant response rating, Wheat” value (wheat; [7]) was 6. For the same compound, the “Plant response rating, Cocklebur” value (cocklebur; [1]) was 0, the “Plant response rating, Cocklebur” value (cocklebur; [2]) was 0 and the “Cocklebur plant response rating” value (cocklebur; [3]) was 0. The “Plant response rating, Cocklebur” value (cocklebur; [4]) was 1, the “Cocklebur plant response rating” value (cocklebur; [5]) was 0 and the “Cocklebur plant response rating” value (cocklebur; [6]) was 0. The “Cocklebur plant response rating (0 to 10 scale)” value (cocklebur; Preemergence, Rate 250 g/ha) was 0, the “Plant response rating, Cocklebur” value (cocklebur; [7]) was 0 and the “Plant response rating, Velvetleaf” value (velvetleaf; [1]) was 0. The “Plant response rating, Velvetleaf” value (velvetleaf; [2]) was 0, the “Velvetleaf plant response rating” value (velvetleaf; [3]) was 0 and the “Plant response rating, Velvetleaf” value (velvetleaf; [4]) was 4. For the same compound, the “Velvetleaf plant response rating” value (velvetleaf; [5]) was 1, the “Velvetleaf plant response rating” value (velvetleaf; [6]) was 4 and the “Plant response rating, Velvetleaf” value (velvetleaf; [7]) was 7. For the same compound, the “Plant response rating, Crabgrass” value (crabgrass; [1]) was 3, the “Plant response rating, Crabgrass” value (crabgrass; [2]) was 4 and the “Crabgrass plant response rating” value (crabgrass; [3]) was 5. For the same compound, the “Plant response rating, Crabgrass” value (crabgrass; [4]) was 9, the “Crabgrass plant response rating” value (crabgrass; [5]) was 6 and the “Crabgrass plant response rating” value (crabgrass; [6]) was 9. The “Plant response rating, Crabgrass” value (crabgrass; [7]) was 10, the “Plant response rating, Corn” value (corn; [1]) was 0 and the “Plant response rating, Corn” value (corn; [2]) was 0. For the same compound, the “Corn plant response rating” value (corn; [3]) was 0, the “Plant response rating, Corn” value (corn; [4]) was 0 and the “Corn plant response rating” value (corn; [5]) was 0. The “Corn plant response rating” value (corn; [6]) was 0, the “Corn plant response rating (0 to 10 scale)” value (corn; Preemergence, Rate 250 g/ha) was 0 and the “Plant response rating, Corn” value (corn; [7]) was 3. For the same compound, the “Plant response rating, Rape” value (rape; [1]) was 0, the “Plant response rating, Rape” value (rape; [2]) was 0 and the “Rape plant response rating” value (rape; [3]) was 0. The “Plant response rating, Rape” value (rape; [4]) was 0, the “Rape plant response rating” value (rape; [5]) was 0 and the “Rape plant response rating” value (rape; [6]) was 0. For the same compound, the “Plant response rating, Rape” value (rape; [7]) was 5, the “Blackgrass plant response rating” value (blackgrass; [3]) was 7 and the “Plant response rating, Blackgrass” value (blackgrass; [4]) was 8. The “Blackgrass plant response rating” value (blackgrass; [6]) was 8, the “Blackgrass plant response rating (0 to 10 scale)” value (blackgrass; Preemergence, Rate 250 g/ha) was 8 and the “Blackgrass plant response rating” value (blackgrass; [7]) was 9.
